“And” between values parts separate entries of the source, which are not always exact repeats. Equal entries are not always repeated. Where two headings read alike, the source gives them in different places.

The conditions of data set [1]: in vivo. The text has this: (§1) Relatively high body water enrichments of ^2H2O (e.g., 1-10% of the total body water is labeled) may be achieved using the techniques of the invention. Water enrichments of ^2H2O of 0.5%-15% may also be achieved using the techniques described herein. […] This finding in a large number of human subjects (>100 people) is contrary to previous concerns about vestibular toxicities at high doses of ^2H2O. Applicant has discovered that as long as rapid changes in body water enrichment are minimized (e.g., by initial administration in small, divided doses), high body water enrichments of ^2H2O can be maintained with a minimum toxicities. For example, the low expense of commercially available ^2H2O allows long-term maintenance of enrichments in the 1-5% range at relatively low expense (e.g., calculations reveal a lower cost for 2 months labeling at 2% ^2H2O enrichment, and thus 7-8% enrichment in the alanine precursor pool, than for 12 hours labeling of ^2H-leucine at 10% free leucine enrichment, and thus 7-8% enrichment in leucine precursor pool for that period).

A short description of data set [2]: Body ^2H2O enrichment (saliva samples) in subjects ingesting 70% ^2H2O over eight weeks. It is filed as in vivo. As to conditions: individual human subjects; oral 70% ^2H2O, eight-week study; one value per subject (251498, 251515, 251598, 251748, 251771). As for the experimental part: The protocol for incorporation of ^2H into human mitochondrial DNA from muscle biopsy samples is illustrated in the experimental design of FIG. 3d. Five human subjects enrolled as out-patients ingested 70 ml of 70% ^2H2O three times a day for 5 days then twice a day for 5 days; then ingested 50 ml twice a day thereafter for the remainder of the eight-week study period. Every two weeks, subjects gave a saliva sample (for measurement of body ^2H2O enrichment). At week 8, an open muscle biopsy was performed under surgical conditions. Mitochondria were isolated from excised muscle tissue (1 g) by ultracentrifugation, using methods well known in the art. Isolation of mitochondrial (mt) DNA and phospholipids (PL) were by procedures well known in the art. Measurement of fractional synthesis of mt PL was as described in the general methods, supra and in Collins et al., supra. Measured ^2H-incorporation (EM1=excess abundance of M+1 mass isotopomer of the molecule) and fractional synthesis (f) of mt DNA and mt PL are shown in Table 1.

The nature of data set [3]: Toxicity on long-term maintenance of ^2H2O body water enrichment in humans. The following applies: body water enrichment 1-10% (0.5%-15%) maintained for weeks or months; >100 people. In kind it is in vivo, human.
Excerpt: as §1

As to `[2H]O[2H]` [^2H2O, deuterated water], the evidence of toxicity entry in data set [1] and in data set [3] was “without any evidence of toxicity” throughout. The “Body ^2H2O (%)” value in data set [2] was 0.5% and 1.7% and 1.1% and 2.0% and 1.0%.
